{"source": "patent US8518889B2", "about": "“Method of treating cancer with antibodies against long-form leukotriene B4 receptor BLT2” (Korea University Research & Business Foundation, priority 2007, dated 2013)", "key": {"LNCaP cells [1]": {"system": "LNCaP cells", "experiment": "cell counting with trypan blue", "assay_type": "cell-based, human", "conditions": "1 μM and 5 μM, serum free RPMI 1640", "experimental": "(§1) The effect of LY255283 was observed by counting of cell number. The cells were grown in 6-well cluster dishes to 70% confluence with 10% FBS-supplemented medium. At day 0, the medium was replaced with serum free RPMI 1640 and cells were stimulated with DMSO or 1 μM and 5 μM LY255283. The cells were harvested at various intervals. Cells were washed with PBS and collected by brief trypsinization. Total cell number was determined by counting each sample in duplicate with a hemocytometer using trypan blue dye. The cells treated with LY255283 in serum free RPM11640 were harvested at various intervals. […] In contrast, PWR-1 E cells which expressed few level of BLT2 were not affected by LY255283."}, "PWR-1E cells": {"system": "PWR-1E cells", "experiment": "cell counting with trypan blue", "assay_type": "cell-based", "conditions": "1 μM and 5 μM, serum free RPMI 1640", "experimental": "as §1"}, "LNCaP cells [2]": {"system": "LNCaP cells", "experiment": "Hoechst 33258 staining", "assay_type": "cell-based, human", "conditions": "5 μM, 36 hr", "experimental": "Prostate cancer cells grown in 6-well cluster dishes were stimulated with 5 μM LY255283 for 36 hr in serum free RPMI 1640. The cells were fixed for 10 min with 4% formaldehyde and stained with Hoechst 33258 (50 μg/ml) (Sigma) for 10 min at 37° C. and observed under fluorescence microscopy (Carl Zeiss)."}, "[3]": {"system": "253J-BV bladder cancer cell", "experiment": "mitochondrial membrane potential (JC-1, flow cytometry)", "assay_type": "cell-based, human", "conditions": "48 hr", "experimental": "Mitochondrial damage is important to the apoptosis affected by the caspase-9 pathway. To evaluate the effect of LY255283 on the mitochondria membrane potential (MMP), cell were pretreated with the fluorescent mitochondria specific cationic dye, JC-1, and changes in membrane potential were measured by flow cytometry. Cells grown in 6 well-plates for 24 hr washed PBS and incubated in RPMI 1640 with 0.5% FBS containing different concentrations of LY255283 and U75302 for 48 hr. After cells were treated with 5 μg/ml of JC-1 for 30 min. Then removal of JC-1, washed with PBS, harvested by trypsinization, and resuspended in PBS. Sample was measured at 530 nm (FL-1 green) and 590 nm (FL-2 red) using a flow cytometry. […] And because of the loss of mitochondrial membrane potential in a LY255283 treated cells, it was speculated that caspase may play an essential role in the process of apoptosis."}, "AsPC-1 cells": {"system": "AsPC-1 cells", "experiment": "MTT assay, cell viability", "assay_type": "cell-based, human", "conditions": "2.5, 5 and 10 μM, 48 h", "experimental": "(§2) To investigate the effect of the selective BLT2 antagonist LY255283 on pancreatic cancer cell proliferation and survival, cell viability was determined by MTT assay after Panc-1 and AsPC-1 cells were exposed to LY255283 for 48 hr.\n(§3) Two human pancreatic cancer cell lines were used: Panc-1 and AsPC-1. Panc-1 cells were grown in DMEM, and AsPC-1 cells were grown in RPMl 1640.\n(§4) Cells were plated in 96-well plates at a concentration of 10,000 cells/well. After incubation for 24 h, cells were serum-starved for 3 h, and then various concentrations (2.5 μM, 5 μM and 10 μM) of LY255283 were added. At the end of experiments, 25μ! of a 5 mg/ml MTT solution, diluted in PBS, was added into the 96-well plates. The plates were incubated at 37° C. in 5% CO2 atmosphere for 3 hr, allowing viable cells to reduce the yellow tetrazolium salt (MTT) into dark blue formazan crystals. At the end of the 3 h incubation, the MTT solution was removed and 100 μl of dimethyl sulfoxide was added to dissolve the formazan crystals. To ensure complete dissolution of the formazan crystals, the plates were vortexed gently at low speed for 10 min. The absorbance in individual wells was determined at 540 nm by a microplate reader."}, "Panc-1 cells": {"system": "Panc-1 cells", "experiment": "MTT assay, cell viability", "assay_type": "cell-based, human", "conditions": "2.5, 5 and 10 μM, 48 h", "experimental": "as §2, §3, §4"}, "[4]": {"system": "MDA-MB-231 breast cancer cells", "experiment": "Matrigel invasion assay", "assay_type": "cell-based, human", "conditions": "antibody 20 μg/ml, LY255283 10 μM, 48 h", "experimental": "LF-BLT2 IgG Ab were also tested to determine if they had anti-BLT2-neutralizing effect in a cancer cell invasion assay. The migration of MDA-MB-231 breast cancer cells through Matrigel matrix gel in the presence of anti-LF-BLT2 was examined. The upper chamber of transwells (8.0-μm membrane pores; Costar) were coated with 2.5 μg/ml Matrigel matrix gel (BD Biosciences) and incubated at 37° C. for 2 hr. A total of 5×10^4 cells in 100 μl of medium with 0.5% FBS were added to the upper chamber and allowed to migrate toward the bottom chamber, which contained medium with 10% FBS as a chemoattractant. MDA-MB-231 cells were stopped at 48 hr. Cells on the top surface of the membranes were removed using a cotton swab, and cells on the underside were fixed in methanol and stained with hematoxylin and eosin (H&E)."}, "eosinophil membranes": {"system": "eosinophil membranes", "conditions": "read-out: IC50, inhibits the binding of radiolabeled LTB4 to eosinophil membranes; cited from earlier work"}}, "note": "pIC50: −log10 of the molar value.", "data": [{"smiles": "CCc1cc(C(C)=O)c(O)cc1OCCCCCC(C)(C)c1nnn[nH]1", "note": "[LY255283, 1-[5-ethyl-2-hydroxy-4-[[6-methyl-6-(1H-tetrazol-5-yl)heptyl]oxy]phenyl]-ethanone]", "values": [{"measurement": "number of LNCaP cells", "setting": "LNCaP cells [1]", "value": "significantly reduced"}, {"measurement": "number of PWR-1E cells", "setting": "PWR-1E cells", "value": "not affected"}, {"measurement": "nuclei condensation or fragmentation (Hoechst 33258)", "setting": "LNCaP cells [2]", "value": "Nuclei condensation of fragmentation was observed"}, {"measurement": "mitochondria potential", "setting": "[3]; 10 μM", "value": "drop in mitochondria potential"}, {"measurement": "increase of green fluorescence (FL-1) compare with control cells", "setting": "[3]; JC-1, 10 μM", "value": "about 2.5 fold"}, {"measurement": "cell viability (MTT), AsPC-3 as printed", "setting": "AsPC-1 cells", "value": "diminished cell viability in dose-dependent manner"}, {"measurement": "cell viability (MTT), Panc-1", "setting": "Panc-1 cells", "value": "diminished cell viability in dose-dependent manner"}, {"measurement": "invasion activity", "setting": "[4]", "value": "showed inhibitory activity"}, {"measurement": "pIC50", "setting": "eosinophil membranes", "value": 6.59}]}]}
